According to patent US10106577B2, “Agonists of neurotrophin receptors and their use as medicaments” (BIONURE FARMA, S.L., priority 2010, dated 2018):
Entries after “also recorded” stand apart in the source; their conditions may differ.

Tests used:
PC12 cells [1] = test: Dose response differentiation assay in PC12 cell line; format: cell-based; settings: for number of differentiated cells in a field of 100 cells: after 3 days of treatment; for number of differentiated cells above the best working concentration: G79 at 50 μg/ml, G81 at concentrations higher than 100 ng/ml; for differentiation of PC12 cells (in words): compared to control PC12 untreated cells; for best working concentration for PC12 differentiation: tested 2-20-100 ng/ml and 2-20-50 μg/ml
Procedure: Stock of PC12 cultures were maintained in Ham's F12 medium supplemented with 2.5% fetal bovine serum (FBS), 15% of horse serum (HS) and 1% penicillin/streptomycin. The cell culture was maintained in 5% CO2 at 37° C.
PC12 cell differentiation was assessed by treating the cells with all the test compounds (G79, G80, and G81) at different testing concentration (2-20-100 ng/ml and 2-20-50 μg/ml). The cells were first plated into collagen-coated 24-wells plates with 2.5% FBS in the medium to be de-differentiated. After 72 hrs, the test compounds were added and NGF (Sigma Aldrich; 100 ng/ml) as positive control of differentiation. The number of differentiated cells, with neurite processes greater than two cell bodies in length, is counted after 3 days of treatment. The cell count is done in three randomly selected fields with 100 cells.

RN22 cells = test: Survival assay in RN22 cells under CuSO4 oxidative stress (MTT); format: cell-based, rat; settings: for cell viability of RN22 (in words): 1-10-50 ng/ml and 1-10 μg/ml, CuSO4 stress; for best working concentration for RN22 cell viability: tested 1-10-50 ng/ml and 1-10 μg/ml; for viability at 0.05 µg/mL: 50 ng/ml
Procedure: The rat schwannome cell line RN22 was cultured in Dulbecco's modified Eagle's medium (DMEM) with 10% FBS and 1% penicillin/streptomycin. The cell culture was maintained in 5% CO2 at 37° C.
RN22 were plated into 24-wells plates at the concentration of 30.000 cells/well in medium without serum. After 24 h, the test compounds G79, G80, and G81 were added at different concentrations (1-10-50 ng/ml and 1-10 μg/ml) and NGF was used as positive control of survival. The cells were so incubated for 2 hrs. Oxidative stress was induced with copper sulphate (CuSO4) at the final concentration of 150 μg/ml. After over-night incubation cell viability was determined by reading the absorbance after adding MTT (Sigma Aldrich).

PC12 cells [2] = test: Secretagogue activity assay (PC12 differentiation with antibody anti-NGF); format: cell-based
Procedure: To assess if the tested compounds, G79, G80, and G81, act as secretagogues, inducing neurotrophic activity through the synthesis of NGF, PC12 cells were plated into collagen-coated 24-wells plates with only 2.5% FBS and after 72 hrs the cells were treated with the tested compounds (each one at 100 ng/ml) together with antibody anti-NGF (1 μg/ml, AbCam). After three days of treatment, the differentiation was evaluated. The cell count was done in three randomly selected fields with 100 cells.

PC12 cells [3] = test: Synergistic activity assay (PC12 differentiation in combination with NGF); format: cell-based; settings: 100 ng/ml in combination with NGF 100 ng/ml
Procedure: To evaluate if the small molecules G79, G80, and G81 interfere with the maximal activity of NGF or lead to additive effects, PC12 cells were plated into collagen-coated 24-wells plates with 2.5% FBS and treated after 72 h with the small chemicals (each one at 100 ng/ml) in combination with NGF at the concentration of 100 ng/ml. In the same experiment PC12 cells were treated with the small molecules or NGF alone, as controls. The number of differentiated cells was evaluated after three days of treatment. The cell count was done in three randomly selected fields with 100 cells.

PC12 cells [4] = test: Signalling inhibition assays (PC12 differentiation with LY294002 or PD98059); format: cell-based
Procedure: To evaluate if the transduction pathway induced by G79, G80, and G81 involves AKT and ERK activation, PC12 cell were treated with the test compounds in the presence of LY294002, an inhibitor of PI3K (an upstream activator of AKT) and PD98059, an inhibitor of MAPK kinase (an upstream activator of ERK). For this purpose, PC12 cells were plated into collagen-coated 24-wells plates with 2.5% FBS and after 72 hrs the cells were treated with the small molecules in combination with LY294002 (Sigma Aldrich, 10 μM) or PD98059 (Sigma Aldrich, 50 μM). NGF (100 ng/ml) was used as control and added alone or in combination with the inhibitors.

SH-SY5Y cells = test: Parkinson's disease in vitro model (MPTP stress, MTT); format: cell-based, human; settings: MPTP 100 μM, 24 hrs; pre-treated 3 hours; BDNF 20 ng/ml
Procedure: The human neuroblastoma cell line SH-SY5Y was maintained in culture with 50% Ham's F12 medium and 50% EMEM medium, supplemented with 10% FBS, […] L-glutamine and 1% penicillin/streptomycin. The cell culture was maintained in a humidified atmosphere of 95% air and CO2 at 37° C.
The SH-SY5Y cells after differentiation to neuronal phenotype with retinoic acid, were pre-treated for 3 hours with the test compounds at different concentrations (20 ng/ml, 100 ng/ml, 2 μg/ml, 20 μg/ml and 50 μg/ml) or BDNF (20 ng/ml) as a positive control. Then 1-methyl-4-phenyl-1,2,3,6-tetrahydropyridine (MPTP) (100 μM) was added and incubated for 24 hrs. The number of surviving cells was determined the day after by 3-(4,5-dimethylthiazol-2-yl)-2,5-diphenyltetrazolium bromide (MTT) assay.

NSC-34 cells = test: In vitro model of ALS, serum deprivation of motoneuron-like cells (MTT); format: cell-based, mouse; settings: for neuroprotection on motorneurons challenged with serum deprivation (in words): 20 ng/ml to 50 μg/ml
Procedure: Mouse motoneuron-like cells NCS-34 were cultured in DMEM (Gibco) supplemented with 10% heat inactivated FBS and 1% penicillin/streptomycin. The cell culture was maintained in a humidified atmosphere of 95% air and CO2 at 37° C.
The nutritional deprivation stress in motorneurons was conducted as described previously in Masahito T. et al., J. Neuropathol. Exp. Neurol. 65(8):816-825 (2006). To assess the effect of trophic stress condition on ALS, the presence of apoptosis was investigated using serum deprivation. NSC-34 cells were seeded in 24-well poly-lysinated plates at 30,000 cells/well and preincubated for 24 h in DMEM plus 10% FBS with various doses of G79, G80, and G81 (20 ng/ml, 100 ng/ml, 2 μg/ml, 20 μg/ml, 50 μg/ml), and G-CSF (2 μg/ml) or BDNF (20 ng/ml) which both were used as positive controls (Masahito T. et al., ibid; Elliot J. L., Neurobiology of Disease 6:310-320 (1999)). Then, the medium was removed and replaced with fresh DMEM without FBS. After 48 h, cell viability was assayed by MTT assay, as described previously.

in vitro = settings: rat (astrocytes)
[5] = 100 ng/ml together with antibody anti-NGF (1 μg/ml)
[6] = plus LY294002 (10 μM), inhibitor of PI3K
[7] = plus PD98059 (50 μM), inhibitor of MAPK kinase
[8] = Rattus norvegicus, RN 22, CuSO4 150 μg/ml, read-out: cell viability, as % relative to the no-stress control

| SMILES | number of differentiated cells in a field of 100 cells (PC12 cells [1]; 20 μg/ml) [cells] | number of differentiated cells above the best working concentration (PC12 cells [1]) | differentiation of PC12 cells (in words) (PC12 cells [1]) | best working concentration for PC12 differentiation (PC12 cells [1]) [ng/mL] | cell viability of RN22 (in words) (RN22 cells) | viability at 0.01 µg/mL (RN22 cells; Rattus norvegicus, RN 22, 10 ng/ml, CuSO4 150 μg/ml, read-out: cell viability, as % relative to the no-stress control) [%] | best working concentration for RN22 cell viability (RN22 cells) [ng/mL] | number of differentiated cells for each field (PC12 cells [2]; [5]) | number of differentiated cells for each field (PC12 cells [2]; 100 ng/ml, treatment alone) | number of differentiated cells (PC12 cells [3]) | number of differentiated cells (PC12 cells [4]; [6]) | number of differentiated cells (PC12 cells [4]; [7]) | number of differentiated cells (PC12 cells [4]; treatment alone) | protection of neuronal cells against MPTP (surviving cells, MTT) (SH-SY5Y cells) | neuroprotection on motorneurons challenged with serum deprivation (in words) (NSC-34 cells) | viability at 0.1 µg/mL (NSC-34 cells; Mus musculus, NSC-34, 100 ng/ml, serum deprivation 48 h, read-out: cell viability, percentage relative to the control without stress) [%] | concentration of the best neuroprotective effect (NSC-34 cells; serum deprivation) [ng/mL] | Papp (in vitro) [×10⁻⁶ cm/s] | viability at 0.05 µg/mL (RN22 cells; [8]) [%] | number of differentiated cells in a field of 100 cells (PC12 cells [1]; 100 ng/ml) [cells] |
| --- | --- | --- | --- | --- | --- | --- | --- | --- | --- | --- | --- | --- | --- | --- | --- | --- | --- | --- | --- | --- |
| CC(C)CN(CC(=O)N(CCCN1CCCC1=O)CC(N)=O)C(=O)CNCCc1ccccc1F [Compound G79, [N-(2-(2′-Fluorophenyl)ethyl)glycyl]-[N-(2-methylpropyl)glycyl]-N-[3-(2′-oxopyrrolidinyl)propyl]glycinamide] | 11.3±2.68 | decreases | induce the differentiation of PC12 cells | 20000 | increased cell viability at all tested concentrations | 98.1 | 10 | 18.8±4.9 | 11.5±2.8 | 11.3±2.6 | 5.28±2.54 | 3.1±1.06 | 11.5±2.8 | Prevent Neuronal Death; also recorded: significant protection of neuronal cells | exerted neuroprotection | 98.1 ± 6.14 | 100 | 4.1 |  |  |
| CC(C)CN(CC(=O)N(CCc1ccc(S(N)(=O)=O)cc1)CC(N)=O)C(=O)CNCCc1ccccc1F [Compound G80, [N-(2-(2′-Fluorophenyl)ethyl)glycyl]-[N-(2-methylpropyl)glycyl]-N-[2-(4′-sulfamoylphenyl)ethyl]glycinamide] |  |  | induce the differentiation of PC12 cells; also recorded: good differentiation with very long neurites | 20 | increased cell viability at all tested concentrations |  | 50 | 14.1±1.8 | 15.1±6.3 | 13±5.9 | 8.5±2.6 | 4±2.3 | 15.1±6.3 | Prevent Neuronal Death | exerted neuroprotection |  |  | 2.8 | 99.9 |  |
| CC(C)CN(CC(=O)N(CCc1ccc(S(N)(=O)=O)cc1)CC(N)=O)C(=O)CNCCN1CCCC1 [Compound G81, [N-(2-(1-Pyrrolidinyl)ethyl)glycyl]-[N-(2-methylpropyl)glycyl]-N-[2-(4′-sulfamoylphenyl)ethyl]glycinamide] |  | decreases | induce the differentiation of PC12 cells; also recorded: significant differentiation | 100 | increased cell viability at all tested concentrations |  | 50 | 15.5±4.1 | 14.1±3.3 | 13.3±3.8 | 6.6±4.02 | 1.6±1.1 | 14.1±3.3 | Prevent Neuronal Death | exerted neuroprotection |  |  | 2.1 | 102 | 9.2±3.9 |
